# Results reported in patent US20020068749A1, “AIDS REMEDY” (priority 1996, published 2002).
# Tests used:
# [1] = test system: IIIB strain of HIV-1 in CEM-SS cells; assay: Measurement of anti-HIV activity in vitro (XTT method, control of cellular denaturalization due to HIV infection); format: cell-based
# Method: An increase in the synergistic anti-virus activity in the combined use of KNI-272 and Saquinavir is shown by a specific experimental example. The anti-virus activity was evaluated as the capability of controlling generation of infectious virus particles in vitro. The effect of cell extinction to HIV infection was calculated when Saquinavir methanesulfonate and KNI-272 respectively or both were added to a culture liquid, to determine the concentration region where a synergistic increase in the anti-virus activity in the combined use of the two compounds is conspicuous. Measurement of the anti-virus activity in vitro was carried out according to the following procedure. In the description hereinafter the concentration of methanesulfonate is indicated as the concentration converted into Saquinavir. The concentration of KNI-272 is indicated as the concentration of the compound itself.
# A IIIB strain of HIV-1 was used as an HIV wild strain and CEM-SS cells were used as infected cells in the above-mentioned culture. The amount of HIV sufficient to kill all CEM-SS cells 6 days after inoculation (multiplicy of infection, MOI of 0.01-0.05) was determined and this amount of HIV was added. A 96 well micro-titre plate was used to inoculate 5×10^3 CEM-SS cells per well in this case. At the time of inoculation of cells, a test compound was added to the culture medium to a prescribed concentration. Three specimens were used for each test level. The following controls were used (1) as calorimetric controls: a sample with only a test compound added to the culture medium, (2) as a cytotoxic control for a test compound: a sample with only cells and the test compound added to the culture medium, (3) as a virus control: a sample with the cells inoculated with only a virus, and (4) as a cell survival control, a sample consisting only of cells. In addition, AZT and DDC which are compounds with a known anti-HIV activity were used as positive controls. After the cells were added, they were inoculated with the infecting virus, followed by incubation at 37° C.for 6 days. Cellular denaturalization due to HIV infection was colorimetrically measured for each well. Employing the colorimetry, was the metabolism from XTT Tetrazolium to XTT Formazan was evaluated. This colorimetry is called the XTT method (see Weislow et al., Journal of the National Cancer Institute 81, 577-586 (1989)). After the above-mentioned incubation, a prescribed amount of XTT was added to each well and incubation was continued for a further four hours at 37° C. to measure the amount of XTT Formazan produced by metabolism by means of calorimetric quantitation.
# The anti-HIV activity for each experimental level was calculated by comparing the number of undenatured cells measured by the above-mentioned assay with the corresponding number of cells in the four control groups. Specifically, the proportion of cellular denaturalization due to HIV infection controlled by the addition of the test compound was calculated. A systematic deviation between the several experiments was corrected based on the results of AZT and ddC used as positive controls.
# In this example, 0 ng/ml and several concentrations in the range of 0.625-10.0 ng/ml of Saquinavir methanesulfonate and 0 ng/ml and several concentrations in the range of 0.313-80.0 ng/ml of KNI-272 were used. The results (anti-HIV activities) obtained under these conditions using either one of these medicaments or both medicaments in combination are shown in Table 1.
# With regard to this concentration region wherein no synergistic increase can be seemingly identified, a similar evaluation was carried out adding a larger amount of HIV to qualitatively evaluate the presence or absence of a synergistic effect. […] This affords qualitative results rather than quantitative results.
# An increase in the synergistic anti-virus activity in the combined use of KNI-272 and Ritonavir is shown by a specific experimental example. […]
# [2] = Dynamics in vivo (concentration in plasma over time) of KNI-272 and Ritonavir in dogs
# [3] = Change of concentration in plasma over time after oral administration to rats (KNI-272 with Indinavir or Nelfinavir); conditions: for AUC: rat, plasma, po, 40 mg/kg, AUC value of Indinavir
# Method: In this example, the change in concentration in blood of KNI-272 over time when the KNI-272 was orally administered in combination with Indinavir, i.e. the change in the concentration of a non-binding type of drug in plasma over time, was measured to evaluate the effect of drug interactions on fluctuations of dynamics in vivo. A commercially available Indinavir for oral administration, CRIXIVAN™ (manufactured by Merck), was used after dissolving Indinavir sulfate in a prescribed concentration. As KNI-272, a suspension prepared from a fine powder of KNI-272 was used. Rats were used as test animals. […] In addition, each compound was individually administered to control groups to evaluate the dynamics in vivo. The animals were fasted for 16 hours before administration. The measurement of the change in the non-binding drug concentration in plasma over time was carried out according to a conventional method using blood samples collected from the test animals.
# The method of evaluation was applied to the above-mentioned system of Indinavir and KNI-272 was followed. […] In this example, a dosage of 50 mg/kg was selected for both Nelfinavir and KNI-272.
# HIV Wild strain (IIIB) = assay: Anti-virus activity IC50 against wild strain; format: cell-based; conditions: Wild strain (IIIB)
# KNI-272 resistant strain = assay: microbe, parasite or virus in culture; format: cell-based, HIV
# From the text: (§1) A drug resistant strain virus is a resistance strains induced in a cell culture system in vitro while maintaining infection in the presence of each medicament through generations.
# [4] = test system: Indinavir resistant strain; assay: Anti-virus activity IC50 against Indinavir resistant strain; format: cell-based, HIV; conditions: Human immunodeficiency virus 1, read-out: Anti-virus activity IC50
# From the text: as §1
# [5] = test system: Ritonavir resistant strain; assay: Anti-virus activity IC50 against Ritonavir resistant strain; format: cell-based, HIV; conditions: Ritonavir resistant strain
# [6] = Indinavir 40 mg/kg + KNI-272 40 mg/kg p.o. at the same time
# [7] = Human immunodeficiency virus 1, read-out: Anti-virus activity IC50
compound,measurement,setting,value
"CC(C)c1nc(CN(C)C(=O)NC(C(=O)N[C@@H](Cc2ccccc2)C[C@H](O)[C@H](Cc2ccccc2)NC(=O)OCc2cncs2)C(C)C)cs1 (relative stereo) [Ritonavir, [5S-(5R*, 8R*, 10R*,11R*)]-10-hydroxy-2-methyl-5-(1-methylethyl)-1-[2-(1-methylethyl)-4-thiazolyl]-3,6-dioxo-8,11-bis(phenylmethyl)-2,4,7,12-tetraaza-tridecane-13-hydroxyacid 5-thiazolylmethyl ester, reference compound]",Anti-HIV activity (%),[1]; Ritonavir 1.25 ng/ml alone,2.0%
same,Anti-HIV activity (%),[1]; Ritonavir 2.5 ng/ml alone,2.3%
same,Anti-HIV activity (%),[1]; Ritonavir 5.0 ng/ml alone,0.5%
same,Anti-HIV activity (%),[1]; Ritonavir 10.0 ng/ml alone,8.9%
same,influence of combined use of KNI-272 on the dynamics in vivo of Ritonavir,"[2]; KNI-272 administered immediately after Ritonavir, dogs",no apparent influence
same,MRT value (index of the half-life of concentration in blood),[2]; medicaments individually administered,≥ 180 minutes and more than 180 minutes
"CC(C)(C)NC(=O)[C@@H]1CN(Cc2cccnc2)CCN1C[C@@H](O)C[C@@H](Cc1ccccc1)C(=O)N[C@H]1c2ccccc2C[C@H]1O [Indinavir, [1(1S, 2R),5(S)]-2,3,5-trideoxy-N-(2,3-dihydro-2-hydroxy-1H-indane-1-yl)-5-[2-(1,1-dimethylethyl)aminocarbonyl-4-(3-pyridinylmethyl)-1-piperazinyl]-2-(phenylmethyl)-D-erythro-pentonamide, reference compound]",increase in maximum concentration in blood value (Cmax) of Indinavir,[3]; [6],as much as twice
same,increase in the AUC value of Indinavir,[3]; [6],almost two times
same,AUC,[3]; Indinavir 40 mg/kg p.o. individually,17200 ng·h/mL
same,AUC,[3]; Indinavir 40 mg/kg p.o. together with KNI-272 40 mg/kg,44300 ng·h/mL
same,IC50,HIV Wild strain (IIIB); [7],0.009 µg/mL
same,IC50,KNI-272 resistant strain; [7],0.03 µg/mL
same,IC50,[4],0.576 µg/mL
"Cc1c(O)cccc1C(=O)N[C@@H](CSc1ccccc1)[C@H](O)CN1C[C@H]2CCCC[C@H]2C[C@H]1C(=O)NC(C)(C)C (relative stereo) [Nelfinavir, [3S-[2(2S*, 3S*), 3α, 4α, 8aβ]]-N-1,1-dimethylethyl-decahydro-2-[2-hydroxy-3-[(3-hydroxy-2-methylbenzoyl)amino]-4-(phenylthio)butyl]-3-isoquinolinecarboxamide, reference compound]",AUC value for Nelfinavir,[3]; Nelfinavir 50 mg/kg p.o. only,130 µg·min/mL
same,AUC value for Nelfinavir,[3]; Nelfinavir 50 mg/kg p.o. simultaneously with KNI-272 50 mg/kg,215 µg·min/mL
same,increase in AUC value for Nelfinavir,[3]; Nelfinavir 50 mg/kg with KNI-272 50 mg/kg vs alone,~1.6 times
same,Anti-virus activity IC50,HIV Wild strain (IIIB),0.007 µg/mL
same,Anti-virus activity IC50,KNI-272 resistant strain; KNI-272 resistant strain,0.030 µg/mL
same,Anti-virus activity IC50,[5],0.124 µg/mL
